Results on 14 compounds are retold here after PubChem BioAssay (NCI).

Values joined by “and” are separate entries in the source; they are usually repeats but may differ in a detail not shown here. Equal entries are not always repeated.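 Values below derive from 48-hour exposures of cells grown in 96-well plates, with endpoints linearly interpolated between the two concentrations bracketing the appropriate inhibition level. GI50 is the concentration that inhibits growth by half. TGI: total growth inhibition.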

Holding throughout (test): NCI tumour cell line growth inhibition, 48 h
In test [1] the test system is SF-539 CNS.
Test [2] relates to HOP-92 NSCLC.
For test [3], the system named is COLO 205 colon.
Test [4] has as its system NCI-H460 lung.
For test [5], the system named is A549 NSCLC.
Test [6] concerns BT-549 breast.
Test [7] concerns ACHN renal.
The subject of test [8] is HL-60(TB) leukemia.
Test [9] relates to CAKI-1 renal.
In test [10] the test system is NCI-H23 lung.

With `CO[C@@H]1CC[C@]2(C)OC[C@H](C)[C@@H]3C[C@@H](C)[C@@H](OC(C)=O)[C@@H]4[C@H]3[C@@H]2O[C@H]4C[C@@]1(C)O`, the GI50 in test [1], in test [2], in test [3], in test [4], in test [5] and in test [6] was > 100 µM in each case. Moreover, the GI50 in test [7], in [8], in test [9] and in [10] was > 100 µM in each case. The TGI in test [1], in test [2], in test [3], in test [4], in [5] and in test [6] was > 100 µM throughout. Also, the TGI in [7], in test [8], in test [9] and in test [10] was > 100 µM in each case.

As to `Cc1cccc(NC2=C(Cl)C(=O)c3nc(C)ccc3C2=O)c1`, the GI50 is 1.39 µM in [1]; 1.66 µM in test [2]; 1.86 µM in [3]; 1.64 µM in test [4]; 2.18 µM in test [5]; 1.41 µM in [6]. For the same compound, the GI50 in [7] was 1.24 µM; in test [8], 2.14 µM; in [9], 1.06 µM; in test [10], 0.512 µM. Also, the TGI stood at 2.75 µM in test [1]; 3.27 µM in test [2]; 4.1 µM in [3]; 3.82 µM in test [4]; 6.11 µM in [5]; 2.77 µM in [6]. In addition, the TGI was determined as 2.53 µM in [7], 5.8 µM in test [8], 2.26 µM in [9] and 2.13 µM in [10].

`COc1cc(/C=C2\CCCCC3=C2N=C2SC(C)=CN2C3c2cc(OC)c(OC)c(OC)c2)cc(OC)c1OC` (centres undefined): the GI50 in [1] was > 100 µM; in test [2], 0.609 µM; in test [3], 41.6 µM; in [4] it was 96.1 µM; in test [5], 20.4 µM; in test [6], 1.15 µM. Further, the GI50 in [7] was 11.9 µM; in test [8] it was 19.5 µM; in [9], 73.3 µM; in test [10] it was 32.2 µM. For the same compound, the TGI in test [1], in test [2], in test [3], in test [4], in test [5] and in test [6] was > 100 µM each time. Besides, the TGI in test [7], in test [8], in [9] and in test [10] was > 100 µM each time.

Regarding `COc1ccc(-c2c(C#N)c(N3CCOCC3)nc3[nH]c(=S)[nH]c(=S)c23)cc1OC`, the GI50 in test [1] is 39.1 µM; in test [2], 48.2 µM; in test [3], 66.8 µM; in test [4], 27.7 µM; in test [5], > 100 µM; in test [6], 32.2 µM. Moreover, the GI50 was 35.8 µM in [7], 36.2 µM in test [8], 30.7 µM in [9] and 20.9 µM in test [10]. Further, the TGI in test [1], in test [2], in test [3], in test [4], in test [5] and in test [6] was > 100 µM in each case. Also, the TGI was > 100 µM in test [7], > 100 µM in test [8], 87.3 µM in [9] and > 100 µM in [10].

Consider `CCn1cc(-c2ccnc3[nH]c(-c4cccc(CN(C)C)c4)cc23)c(-c2ccc(NC(=O)N(C)C)cc2)n1`, for which the GI50 in [1] was 0.418 µM and 1.38 µM; in [2] it was 0.338 µM and 0.294 µM; in test [3], < 0.01 µM and 0.0272 µM; in [4], 0.209 µM and 0.109 µM; in test [5], 0.238 µM and 0.747 µM; in test [6] it was 1.45 µM and 2.3 µM. Further, the GI50 was 1.73 µM and 2.45 µM in test [7]; 1.46 µM and 0.863 µM in test [8]; 3.36 µM and 1.17 µM in test [9]; 2.1 µM and 2.45 µM in [10]. For the same compound, the TGI in test [1] is 13.3 µM and > 10 µM; in [2], 5.2 µM and 2.99 µM; in [3], 3.81 µM and 2.99 µM; in test [4], 13.7 µM and > 10 µM; in test [5], 16.1 µM and > 10 µM; in test [6] it was 17.3 µM and > 10 µM. The TGI in [7] is 10.2 µM and > 10 µM; in test [8], 8.3 µM and > 10 µM; in test [9], 18.9 µM and > 10 µM; in [10], 17.2 µM and > 10 µM.

For `NCCCn1c2c(c3ccc([N+](=O)[O-])cc3c1=O)C(=O)c1cc(I)ccc1-2`, the GI50 in [1] is 0.0435 µM; in test [2], 0.65 µM; in [3], 1.02 µM; in test [4], < 0.01 µM; in test [5], 0.0133 µM; in test [6], 0.931 µM. The GI50 in [7] was < 0.0179 µM; in test [8], < 0.0176 µM; in test [9], 0.0758 µM; in [10] it was 0.0343 µM. Further, the TGI in [1] came to 1.21 µM; in test [2], 2.25 µM; in test [3] it was 2.44 µM; in test [4] it was 1.31 µM; in test [5], 1.74 µM; in test [6], 2.51 µM. Also, the TGI was determined as 1.29 µM in [7], 0.0733 µM in test [8], 1.98 µM in test [9] and 1.22 µM in test [10].

Turning to `Cc1cc(C(=O)CSC(=S)SC(C)(C)C)ccc1Cl`, the TGI in [1] was found to be 35.7 µM; in test [2] it was 70.3 µM; in test [3], 33.1 µM; in [4], 28.3 µM; in test [5], 50 µM; in test [6] it was 53.1 µM. Also, the TGI was 62.9 µM in test [7], 44.1 µM in [8], > 100 µM in [9] and > 100 µM in [10].

For `NC(N)=Nc1nc2ccccc2o1`, the GI50 in test [1], in [2], in test [3], in test [4], in test [5] and in test [6] was > 100 µM throughout. Further, the GI50 in test [7], in test [8], in test [9] and in test [10] was > 100 µM throughout. Also, the TGI in [1], in test [2], in [3], in [4], in test [5] and in test [6] was > 100 µM throughout. Also, the TGI in test [7], in test [8], in [9] and in [10] was > 100 µM throughout.

For `COC(=O)c1c(C)cc(OC)c(C/C=C(\C)CCCc2coc(C=C(C)C)c2)c1OC`, the TGI in test [1], in test [2], in test [3], in [4], in test [5] and in test [6] was > 100 µM in each case. Moreover, the TGI in test [7], in [8], in test [9] and in [10] was > 100 µM throughout.

As to `CC[C@]1(O)C[C@H]2CN(CCc3c([nH]c4ccccc34)C(C(=O)OC)(c3cc4c(cc3OC)N(C)[C@H]3[C@@](O)(C(=O)OC)[C@H](OC(C)=O)[C@]5(CC)[C@@H]6C[C@@H]6CN6CC[C@]43[C@@H]65)C2)C1` (some centres undefined), the GI50 in test [1] is 0.0226 µM; in test [2] it was 0.00682 µM; in test [3], 0.00246 µM; in test [4], 0.00426 µM; in test [5], 0.00372 µM; in test [6] it was 0.0156 µM. Moreover, the GI50 in [7] is 0.012 µM; in [8], 0.0034 µM; in test [9] it was 0.0345 µM; in test [10], 0.003 µM. Further, the TGI in [1] was 3.04 µM; in [2], 0.827 µM; in test [3], 0.00937 µM; in test [4], > 4.61 µM; in test [5] it was > 14.3 µM; in test [6] it was 0.683 µM. For the same compound, the TGI in test [7] is > 14.3 µM; in [8] it was 0.0108 µM; in test [9] it was 6.17 µM; in test [10], 0.498 µM.

In the case of `COc1ccc2c(=O)oc3c(OC)cc(CCN(C)C)c4c(=O)oc1c2c34`, the GI50 in test [1] is 22.8 µM and 6.89 µM; in test [2] it was 21.5 µM and 8.25 µM; in test [4], 13.8 µM and 2.4 µM; in [5], 21.3 µM and 8.46 µM; in test [7] it was 14.8 µM and 5.71 µM; in [8] it was 10.7 µM and 1.84 µM. In [9], the GI50 is 17.3 µM and 8.46 µM. The TGI in [1] is 37.5 µM and 14 µM; in [2], 39.6 µM and 15.2 µM; in test [3] it was 17.4 µM and 22.1 µM; in test [4] it was 29.9 µM and 9.03 µM; in [5] it was 37 µM and 20.2 µM; in [6] it was 15.4 µM. In addition, the TGI was 28.1 µM and 11.8 µM in test [7]; 26.5 µM and 10.2 µM in test [8]; 31.6 µM and 15.4 µM in test [9]; 32.7 µM and 17.5 µM in test [10].

In the case of `COc1c2occc2c(N)c2ccc(=O)oc12`, the TGI in [1], in [2], in [3], in test [4], in [5] and in test [6] was > 100 µM in each case. For the same compound, the TGI in test [7], in test [8], in test [9] and in [10] was > 100 µM throughout.

For `Nc1nc(Cl)nc2c1ncn2C1CC(O)C(CO)O1` (centres undefined), the TGI was 76.8 µM in [1]; 24.2 µM in [2]; > 100 µM in [3]; > 100 µM in test [4]; > 100 µM in test [5]; > 100 µM in [6]. Moreover, the TGI is > 100 µM in test [7], 1.02 µM in test [8], 17.3 µM in test [9] and 4.78 µM in [10]. Also, the GI50 was 0.345 µM in test [6] and 0.562 µM in test [7].

For the compound `COc1cc2c3c(n(C)c(=O)c2cc1OC)-c1cc2c(cc1C3=O)OCO2`, the TGI in test [1] was 23.9 µM; in [2] it was > 100 µM; in [3], > 100 µM; in test [4] it was > 100 µM; in test [5] it was > 100 µM; in [6] it was > 100 µM. In addition, the TGI in test [7] is > 60.5 µM; in test [8], > 100 µM; in test [9], > 53.1 µM; in test [10], 37 µM.
